Data reported in patent US20020071842A1, “Soluble CD1 compositions and uses thereof” (priority 2000, published 2002).

How the values were obtained:
Experiment in all cases: Plate-bound mCD1d fusion protein hybridoma stimulation assay (IL-2 ELISA)
Type in all cases: cell-based, mouse
24.7.C hybridoma = details: 24 7.C NKT hybridoma; plate-bound mCD1d-IgGFc2a fusion protein preincubated with lipid antigen
Text: (§1) The CD1d-restricted T cell clones 24.7, 24.8, 24.9 (NKT cell) and 14S.6, 14S.7, 14S.10, and 14S.15 (diverse TCRs) were all derived from spleen of wild type C57BL/6 mice, as described previously (Behar, S. M. et al., J. Immunol., 162:161-7 (1999)). To generate T cell hybridomas, the activated T cells were fused to the aminopterin-sensitive BW5147 αβTCR^− thymoma cell line using PEG1500, and hybrids were selected in HAT medium (Life Technologies, Gaithersburg, Md.). Resulting TT hybridomas were tested for recognition of RMA-S cells transfected with mCD1D1 compared to untransfected RMA-S cells, as described below. […] The hybridomas are distinguished from the original T cell clones by the addition of a letter to their names. The KT/7, KT/12, KT/22, and KT/23 and Vβ/9 NKT cell hybridomas were derived from NK1.1^+ T cells enriched from spleen of C57BL/6 mice by depletion of CD8+ T cells, naive T cells, and B cells by mAbs (anti-B220, CD8, and CD62L, or anti-CD8α, CD8β, and Me114) bound to magnetic microbeads, or to plastic. The purified cells were stimulated either by the anti-CD3 KT3 mAb (KT/7, KT/12, KT/22, KT/23), or by an anti-Vβ8.2 mAb (Vβ/9), and addition of IL-2 or IL-2 and IL-7. After 4-5 days of culture the cells were fused with BW5147 thymoma cells. The VII68, VIII24, XVI9, and XV104 diverse TCR hybridomas were generated from CD4^+ T cells from class 110 mice, as described previously (Cardell, S. et al., J. Exp. Med., 182:993-1004 (1995)). The DN32D3 hybridoma was derived as described (Lantz, O., and Bendelac, A., J. Exp. Med., 180:1097-106 (1994).
(§2) To test for recognition of the mCD1d fusion protein and purified or synthetic antigens, 96 well protein A coated plates (Pierce Chemical Company) were incubated with 400-600 ng/well of the fusion protein or a negative control IgG2a antibody, RPC5.4 or UPC10, in PBS, at pH 7.2. Lipid antigens were diluted into PBS and added where specified at the indicated molar ratio of antigen to fusion protein, (when not specified the ratio was 40:1). Protein A plates containing the fusion protein and antigen were incubated 24-48 hr at 37° C., then washed three times with 200 μl/well sterile PBS, pH 7.2, and two times with 200 μl/well sterile culture medium (containing RPMI supplemented with L-glutamine and penicillin/streptomycin, Life Technologies, Gaithersburg, Md., and 10% bovine calf serum, Hyclone Laboratories, Logan, Utah). For assays in which the PI was phospholipase treated, it was first diluted into 0.01M Tris, 0.15M NaCl, pH 7.5, containing 0.25 U PI-specific phospholipase C or 0.5 U phospholipase D (Sigma, St Louis, Mo.), and incubated 30 minutes at room temperature, then added to the protein A plates as described above. For assays in which the pH was varied during antigen incubation with the fusion protein, the fusion protein and α-GalCer were diluted into a 20 mM citrate/phosphate buffer of the specified pH, which contained 0.15 M NaCl, and after incubation, the samples were neutralized by addition of 1M Tris, pH 7.5. Hybridoma cells were added to fusion protein/antigen treated plates at a concentration of 1×10^5 cells/well, in a total volume of 150 μl/well. Assays were performed using 2-6 replicate wells. In some assays, an anti-mCD1d blocking antibody (19G11) was included at a final concentration of 20 μg/ml. The plates were incubated at 37° C. for 16-20 hr, and culture supernatants were withdrawn for analysis. Each experiment was performed at least three times.
(§3) IL-2 secreted in the hybridoma stimulation assays was quantitated in a double antibody sandwich ELISA, by comparison to a standard curve of purified murine IL-2 (Pharmingen, San Diego, Calif.). Hybridoma plate stimulation supernatants (used either neat or diluted) and serially diluted IL-2 standards were added to 96 well ELISA plates coated with a rat anti-mouse IL-2 capture antibody (Pharmingen). […]

VII68 hybridoma = details: VII68 diverse TCR hybridoma; plate-bound mCD1d-IgGFc2a fusion protein preincubated with lipid antigen
Text: as §1, §2, §3

KT/12 hybridoma = details: KT/12 NKT hybridoma; plate-bound mCD1d-IgGFc2a fusion protein preincubated with lipid antigen
Text: as §1, §2, §3

KT/23 hybridoma = details: KT/23 NKT hybridoma; plate-bound mCD1d-IgGFc2a fusion protein preincubated with lipid antigen
Text: as §1, §2, §3

DN32D3 hybridoma = details: DN32D3 NKT hybridoma; plate-bound mCD1d-IgGFc2a fusion protein preincubated with lipid antigen
Text: as §1, §2, §3

VIII24 hybridoma = details: VIII24 diverse TCR hybridoma; plate-bound mCD1d-IgGFc2a fusion protein preincubated with lipid antigen
Text: as §1, §2, §3

14S.6.A hybridoma = details: 14S.6.A diverse TCR hybridoma; plate-bound mCD1d-IgGFc2a fusion protein preincubated with lipid antigen
Text: as §1, §2, §3

KT/22 hybridoma = details: KT/22 NKT hybridoma; plate-bound mCD1d-IgGFc2a fusion protein preincubated with lipid antigen
Text: as §1, §2, §3

XV19 hybridoma = details: XV19 diverse TCR hybridoma; plate-bound mCD1d-IgGFc2a fusion protein preincubated with lipid antigen
Text: as §1, §2, §3

Vβ/9 hybridoma = details: Vβ/9 NKT hybridoma; plate-bound mCD1d-IgGFc2a fusion protein preincubated with lipid antigen
Text: as §1, §2, §3

24.9.E hybridoma = details: 24.9 E NKT hybridoma; plate-bound mCD1d-IgGFc2a fusion protein preincubated with lipid antigen
Text: as §1, §2, §3

XV104 hybridoma = details: XV104 diverse TCR hybridoma; plate-bound mCD1d-IgGFc2a fusion protein preincubated with lipid antigen
Text: as §1, §2, §3

14S.15.A hybridoma = details: 14S.15.A diverse TCR hybridoma; plate-bound mCD1d-IgGFc2a fusion protein preincubated with lipid antigen
Text: as §1, §2, §3

KT/7 hybridoma = details: KT/7 NKT hybridoma; plate-bound mCD1d-IgGFc2a fusion protein preincubated with lipid antigen
Text: as §1, §2, §3

14S.7.N hybridoma = details: 14S.7.N diverse TCR hybridoma; plate-bound mCD1d-IgGFc2a fusion protein preincubated with lipid antigen
Text: as §1, §2, §3

24.8.A hybridoma = details: for IL-2 secretion: 24.8 A NKT hybridoma, plate-bound mCD1d-IgGFc2a fusion protein preincubated with lipid antigen; for IL-2 response to mCD1d fusion protein pre-treated with purified or synthetic lipid: 24.8.A hybridoma, compared to untreated or buffer treated fusion protein
Text: as §1, §2
IL-2 secreted in the hybridoma stimulation assays was quantitated in a double antibody sandwich ELISA, by comparison to a standard curve of purified murine IL-2 (Pharmingen, San Diego, Calif.). Hybridoma plate stimulation supernatants (used either neat or diluted) and serially diluted IL-2 standards were added to 96 well ELISA plates coated with a rat anti-mouse IL-2 capture antibody (Pharmingen).

Row | Molecule | IL-2 secretion (24.7.C hybridoma) | IL-2 secretion (VII68 hybridoma) | IL-2 secretion (KT/12 hybridoma) | IL-2 secretion (KT/23 hybridoma) | IL-2 secretion (DN32D3 hybridoma) | IL-2 secretion (VIII24 hybridoma) | IL-2 secretion (14S.6.A hybridoma) | IL-2 secretion (KT/22 hybridoma) | IL-2 secretion (XV19 hybridoma) | IL-2 secretion (Vβ/9 hybridoma) | IL-2 secretion (24.9.E hybridoma) | IL-2 secretion (XV104 hybridoma) | IL-2 secretion (14S.15.A hybridoma) | IL-2 secretion (KT/7 hybridoma) | IL-2 secretion (14S.7.N hybridoma) | IL-2 secretion (24.8.A hybridoma) | IL-2 response to mCD1d fusion protein pre-treated with purified or synthetic lipid (24.8.A hybridoma)
1 | monogalactosyl diglyceride [MGDG] | 0 (A “0” indicates a mean of less than 50 pg/ml IL-2 was secreted) | 0 (A “0” indicates a mean of less than 50 pg/ml IL-2 was secreted) | 0 (A “0” indicates a mean of less than 50 pg/ml IL-2 was secreted) | 0 (A “0” indicates a mean of less than 50 pg/ml IL-2 was secreted) | 0 (A “0” indicates a mean of less than 50 pg/ml IL-2 was secreted) | 0 (A “0” indicates a mean of less than 50 pg/ml IL-2 was secreted) | 0 (A “0” indicates a mean of less than 50 pg/ml IL-2 was secreted) | 0 (A “0” indicates a mean of less than 50 pg/ml IL-2 was secreted) | 0 (A “0” indicates a mean of less than 50 pg/ml IL-2 was secreted) | 0 (A “0” indicates a mean of less than 50 pg/ml IL-2 was secreted) | 0 (A “0” indicates a mean of less than 50 pg/ml IL-2 was secreted) | 0 (A “0” indicates a mean of less than 50 pg/ml IL-2 was secreted) | 0 (A “0” indicates a mean of less than 50 pg/ml IL-2 was secreted) | 0 (A “0” indicates a mean of less than 50 pg/ml IL-2 was secreted) | 0 (A “0” indicates a mean of less than 50 pg/ml IL-2 was secreted) | + (“+” indicates 50-250 pg/ml) | 
2 | O[C@H]1[C@H](O)[C@@H](O)[C@H](O)[C@@H](O)[C@H]1O [inositol] |  |  |  |  |  |  |  |  |  |  |  |  |  |  |  |  | little or no stimulation
3 | phosphatidylglycerol [PG] | 0 (A “0” indicates a mean of less than 50 pg/ml IL-2 was secreted) | 0 (A “0” indicates a mean of less than 50 pg/ml IL-2 was secreted) | 0 (A “0” indicates a mean of less than 50 pg/ml IL-2 was secreted) | 0 (A “0” indicates a mean of less than 50 pg/ml IL-2 was secreted) | 0 (A “0” indicates a mean of less than 50 pg/ml IL-2 was secreted) | 0 (A “0” indicates a mean of less than 50 pg/ml IL-2 was secreted) | + (“+” indicates 50-250 pg/ml) | 0 (A “0” indicates a mean of less than 50 pg/ml IL-2 was secreted) | 0 (A “0” indicates a mean of less than 50 pg/ml IL-2 was secreted) | 0 (A “0” indicates a mean of less than 50 pg/ml IL-2 was secreted) | + (“+” indicates 50-250 pg/ml) | 0 (A “0” indicates a mean of less than 50 pg/ml IL-2 was secreted) | + (“+” indicates 50-250 pg/ml) | 0 (A “0” indicates a mean of less than 50 pg/ml IL-2 was secreted) | + (“+” indicates 50-250 pg/ml) | ++ (“++” indicates 250-1000 pg/ml) | dose dependent responses
4 | phosphatidylethanolamine [PE] | 0 (A “0” indicates a mean of less than 50 pg/ml IL-2 was secreted) |  |  |  | 0 (A “0” indicates a mean of less than 50 pg/ml IL-2 was secreted) |  | + (“+” indicates 50-250 pg/ml) |  |  |  | 0 (A “0” indicates a mean of less than 50 pg/ml IL-2 was secreted) |  | 0 (A “0” indicates a mean of less than 50 pg/ml IL-2 was secreted) |  | 0 (A “0” indicates a mean of less than 50 pg/ml IL-2 was secreted) |  | dose dependent responses
5 | diacyl glyceride [DAG] | 0 (A “0” indicates a mean of less than 50 pg/ml IL-2 was secreted) | 0 (A “0” indicates a mean of less than 50 pg/ml IL-2 was secreted) | 0 (A “0” indicates a mean of less than 50 pg/ml IL-2 was secreted) | 0 (A “0” indicates a mean of less than 50 pg/ml IL-2 was secreted) | 0 (A “0” indicates a mean of less than 50 pg/ml IL-2 was secreted) | 0 (A “0” indicates a mean of less than 50 pg/ml IL-2 was secreted) | 0 (A “0” indicates a mean of less than 50 pg/ml IL-2 was secreted) | 0 (A “0” indicates a mean of less than 50 pg/ml IL-2 was secreted) | 0 (A “0” indicates a mean of less than 50 pg/ml IL-2 was secreted) | 0 (A “0” indicates a mean of less than 50 pg/ml IL-2 was secreted) | 0 (A “0” indicates a mean of less than 50 pg/ml IL-2 was secreted) | 0 (A “0” indicates a mean of less than 50 pg/ml IL-2 was secreted) | 0 (A “0” indicates a mean of less than 50 pg/ml IL-2 was secreted) | 0 (A “0” indicates a mean of less than 50 pg/ml IL-2 was secreted) | 0 (A “0” indicates a mean of less than 50 pg/ml IL-2 was secreted) |  | little or no stimulation
6 | CCCCCCCCCCCCCCCC(=O)O [palmitate, Palmitic acid] |  |  |  |  |  |  |  |  |  |  |  |  |  |  |  |  | little or no stimulation
